The results in this text go back to patent publication US20030170606A1, “High-throughput screening assays for modulators of mitochondrial membrane potential” (priority 1999, published 2003).

The assay concerns UCP1. The experiment in a line: DiSC3 fluorescence assay in permeabilized UCP1-expressing yeast cells (YUCP). The class given is cell-based. As for the experimental part: To make the cells permeable to externally added compounds, the yeast cells were treated with zymolyase. The spheroplasts were cultured in full media for 0.5 hours and pelleted. The pellets were resuspended in a lysis buffer and stored at about −80° C. The permeabilized cells can be kept in this way for at least one half year without loss of activity.
To assess the effects of known modulators of uncoupling activity and of uncoupling protein activity, the following fluorescence intensity measurements were carried out: Permeabilized cells were combined with the fluorescent dye DiSC3 in buffer and incubated for about 5-60 min., usually less than about 30 min. The resulting fluorescence intensity (λexc=620 nm, λem=670 nm) corresponded to the basal ΔΨm. The mitochondria accumulate the fluorescent dye into the matrix in proportion to the ΔΨm, and at basal ΔΨm, the DiSC3 fluorescence is substantially quenched.
A Beckman Multimek™ 96 Automated 96-channel Pipettor was programmed to mix test compounds from master plates with the buffer containing freshly premixed permeabilized cells (0.1 OD) and DiSC3 (0.1 μM) and transfer this mixture to black 96-well plates. An LJL analyst was used in the fluorescence intensity mode to measure the DiSC3 fluorescence. […] A total of about 3,300 compounds were screened in this way to test the feasibility of this method.
Data are presented in FIG. 7B after transformation of the fluorescence data according to (Fcompd/Fcontrol−1), where Fcompd is the fluorescence intensity of a given well (as shown in FIG. 7A), and Fcontrol is the basal fluorescence obtained as an average intensity in column 1 where no compound was added (instead an equivalent volume of dimethyl sulfoxide (DMSO) was added).

As to `Nc1nc2c(ncn2[C@@H]2O[C@H](COP(=O)(O)OP(=O)(O)O)[C@@H](O)[C@H]2O)c(=O)[nH]1` [GDP], the “DiSC3 fluorescence level upon addition of compound” value (100 μM added in the presence of BrPalm) is listed as “reverted back to the level close to basal intensity”.
Turning to `N#CC(C#N)=NNc1ccc(Cl)cc1` [CCCP, carbonyl-cyanide p-chlorophenylhydrazone], under “1 μM”, the “DiSC3 fluorescence level upon addition of compound” value is listed as “fluorescence reaches a maximum level”.
In the case of `[Cl-].[K+]` [KCl], the “change in DiSC3 fluorescence intensity (plasma membrane potential control)” value (0 to 125 mM) is recorded as “no change in fluorescence intensity”.
Consider `CCCCCCCCCCCCCCC(Br)C(=O)O` (stereo not shown) [BrPalm, 2-bromo-palmitate], for which the “DiSC3 fluorescence level upon addition of compound” value (5 to 10 μM) is reported as “higher fluorescence level”.
